Data: patent US8574563B2 (Bristol-Myers Squibb Company, priority 2006, dated 2013)

System: HCV 1b-377-neo replicon cells
Experiment: HCV replicon assay, HCV 1b-377-neo replicon cells (1b FRET)
Assay type: cell-based, Hepatitis C virus genotype 1b
Conditions: HCV 1b-377-neo replicon cells; HCV 1b genotype; read-out: EC50 range against HCV 1b (Table 2, Range)
Summary of the method: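 Compounds were tested in genotype 1b subgenomic replicon cells carrying a neomycin marker, alongside a matched replicon line with an NS5A Y2065H substitution that confers resistance to a reference NS5A inhibitor.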

SMILES	EC50 [nM]
COC(=O)N[C@@H](C(=O)N1CCC[C@H]1c1ncc(-c2ccc(-c3ccc(-c4cnc([C@@H]5CCCN5C(=O)c5ccccn5)[nH]4)cc3)cc2)[nH]1)c1ccccc1 [Example 67, methyl ((1R)-2-oxo-1-phenyl-2-((2S)-2-(5-(4′-(2-((2S)-1-(2-pyridinylcarbonyl)-2-pyrrolidinyl)-1H-imidazol-5-yl)-4-biphenylyl)-1H-imidazol-2-yl)-1-pyrrolidinyl)ethyl)carabamate]	0.001 to 0.999

Same assay, conditions: Hepatitis C virus, HCV 1b-377-neo replicon cells; HCV 1b genotype; read-out: EC50 range against HCV 1b (Table 2, Range)

SMILES	EC50 [nM]
COC(=O)N[C@@H](Cc1cn(C)cn1)C(=O)N1CCC[C@H]1c1ncc(-c2ccc(-c3ccc(-c4cnc([C@@H]5CCCN5C(=O)[C@@H](NC(=O)OC)[C@@H](C)OC)[nH]4)cc3)cc2)[nH]1 [cj-43, methyl ((1S)-2-((2S)-2-(5-(4′-(2-((2S)-1-((2S,3R)-3-methoxy-2-((methoxycarbonyl)amino)butanoyl)-2-pyrrolidinyl)-1H-imidazol-5-yl)-4-biphenylyl)-1H-imidazol-2-yl)-1-pyrrolidinyl)-1-((1-methyl-1H-imidazol-4-yl)methyl)-2-oxoethyl)carbamate]	0.001 to 0.999
CN(C)[C@@H](C(=O)N1C[C@@H](O)C[C@H]1c1ncc(-c2ccc(-c3ccc(-c4cnc([C@@H]5C[C@H](O)CN5C(=O)[C@@H](c5ccccc5)N(C)C)[nH]4)cc3)cc2)[nH]1)c1ccccc1 [Example 24-16, (3S,5S,3′S,5′S)-5,5′-(4,4′-biphenyldiylbis(1H-imidazole-5,2-diyl))bis(1-((2R)-2-(dimethylamino)-2-phenylacetyl)-3-pyrrolidinol)]	0.001 to 0.999
COC(=O)N[C@@H](C(=O)N1[C@@H](C)CC[C@H]1c1nc(-c2ccc(-c3ccc(-c4c[nH]c([C@@H]5CC[C@H](C)N5C(=O)[C@H](NC(=O)OC)c5ccccc5)n4)cc3)cc2)c[nH]1)c1ccccc1 [Example M153, dimethyl (4,4′-biphenyldiylbis(1H-imidazole-4,2-diyl((2S,5S)-5-methyl-2,1-pyrrolidinediyl)((1R)-2-oxo-1-phenyl-2,1-ethanediyl)))biscarbamate]	0.001 to 0.999
COC(=O)N[C@@H](C(=O)N1CCC[C@H]1c1ncc(-c2ccc(-c3ccc(-c4cnc([C@@H]5CCCN5C(=O)[C@H](NC(=O)OC)c5ccccc5)[nH]4)c(F)c3)cc2)[nH]1)c1ccccc1 [Example D46, dimethyl ((3-fluoro-4,4′-biphenyldiyl)bis(1H-imidazole-5,2-diyl(2S)-2,1-pyrrolidinediyl((1R)-2-oxo-1-phenyl-2,1-ethanediyl))) biscarbamate]	0.001 to 0.999
CCN(CC)[C@@H](C(=O)N1CCC[C@H]1c1ncc(-c2ccc(-c3ccc(-c4cnc([C@@H]5CCCN5C(=O)[C@@H]5COC(=O)N5)[nH]4)cc3)cc2)[nH]1)c1ccccc1 [Example M44, (4S)-4-(((2S)-2-(5-(4′-(2-((2S)-1-((2R)-2-(diethylamino)-2-phenylacetyl)-2-pyrrolidinyl)-1H-imidazol-5-yl)-4-biphenylyl)-1H-imidazol-2-yl)-1-pyrrolidinyl)carbonyl)-1,3-oxazolidin-2-one]	100 to 999
CN(C)[C@@H](C(=O)N1CSC[C@H]1c1ncc(-c2ccc(-c3ccc(-c4cnc([C@@H]5CSCN5C(=O)[C@@H](c5ccccc5)N(C)C)[nH]4)cc3)cc2)[nH]1)c1ccccc1 [Example 148, (1R,1′R)-2,2′-(4,4′-biphenyldiylbis(1H-imidazole-5,2-diyl(4R)-1,3-thiazolidine-4,3-diyl))bis(N,N-dimethyl-2-oxo-1-phenylethanamine)]	1 to 99
COC(=O)N[C@@H](C(=O)N1CCC[C@H]1c1ncc(-c2ccc(-c3ccc(-c4cnc([C@@H]5CCCN5C(=O)[C@@H](c5ccccc5)N(C)C)[nH]4)cc3)cc2)[nH]1)c1ccccc1 [Example 42, methyl ((1R)-2-((2S)-2-(5-(4′-(2-((2S)-1-((2R)-2-(dimethylamino)-2-phenylacetyl)-2-pyrrolidinyl)-1H-imidazol-5-yl)-4-biphenylyl)-1H-imidazol-2-yl)-1-pyrrolidinyl)-2-oxo-1-phenylethyl)carbamate]	0.001 to 0.999
CCN(C1CC1)[C@@H](C(=O)N1CCC[C@H]1c1ncc(-c2ccc(-c3ccc(-c4cnc([C@@H]5CCCN5C(=O)[C@@H](c5ccccc5)N(CC)C5CC5)[nH]4)cc3)cc2)[nH]1)c1ccccc1 [Example M3, N,N′-(4,4′-biphenyldiylbis(1H-imidazole-5,2-diyl(2S)-2,1-pyrrolidinediyl((1R)-2-oxo-1-phenyl-2,1-ethanediyl)))bis(N-ethylcyclopropanamine)]	1 to 99
COC(=O)NCC(=O)N1CCC[C@H]1c1ncc(-c2ccc(-c3ccc(-c4cnc([C@@H]5CCCN5C(=O)[C@H](NC(=O)OC)c5ccccc5)[nH]4)cc3)cc2)[nH]1 [Example 40, methyl (2-((2S)-2-(5-(4′-(2-((2S)-1-((2R)-2-((methoxycarbonyl)amino)-2-phenylacetyl)-2-pyrrolidinyl)-1H-imidazol-5-yl)-4-biphenylyl)-1H-imidazol-2-yl)-1-pyrrolidinyl)-2-oxoethyl)carbamate]	0.001 to 0.999
CC(C)C[C@H](O)C(=O)N1CCC[C@H]1c1ncc(-c2ccc(-c3ccc(-c4cnc([C@@H]5CCCN5C(=O)[C@@H](O)CC(C)C)[nH]4)cc3)cc2)[nH]1 [LS3, (2S,2′S)-1,1′-(4,4′-biphenyldiylbis(1H-imidazole-5,2-diyl(2S)-2,1-pyrrolidinediyl))bis(4-methyl-1-oxo-2-pentanol)]	1 to 99
CN(C)[C@@H](C(=O)N1CCC[C@H]1c1ncc(-c2ccc(-c3ccc(-c4cnc([C@@H]5CCCN5C(=O)Cc5cccs5)[nH]4)cc3)cc2)[nH]1)c1ccccc1 [Example 94-47, (1R)-N,N-dimethyl-2-oxo-1-phenyl-2-((2S)-2-(5-(4′-(2-((2S)-1-(2-thienylacetyl)-2-pyrrolidinyl)-1H-imidazol-5-yl)-4-biphenylyl)-1H-imidazol-2-yl)-1-pyrrolidinyl)ethanamine]	0.001 to 0.999
COC(=O)N[C@H](C(=O)N1CCC[C@H]1c1ncc(-c2ccc(-c3ccc(-c4[nH]c([C@@H]5CCCN5C(=O)[C@@H](NC(=O)OC)C(C)C)nc4C(F)(F)F)cc3)cc2)[nH]1)C(C)C [Example J39, methyl ((1S)-1-(((2S)-2-(5-(4′-(2-((2S)-1-((2S)-2-((methoxycarbonyl)amino)-3-methylbutanoyl)-2-pyrrolidinyl)-1H-imidazol-5-yl)-4-biphenylyl)-4-(trifluoromethyl)-1H-imidazol-2-yl)-1-pyrrolidinyl)carbonyl)-2-methylpropyl)carbamate]	0.001 to 0.999
CCCN(CCC)[C@@H](C)C(=O)N1CCC[C@H]1c1ncc(-c2ccc(-c3ccc(-c4cnc([C@@H]5CCCN5C(=O)[C@@H](NC(=O)OC)C(C)C)[nH]4)cc3)cc2)[nH]1 [Example M84, methyl ((1S)-1-(((2S)-2-(5-(4′-(2-((2S)-1-(N,N-dipropyl-L-alanyl)-2-pyrrolidinyl)-1H-imidazol-5-yl)-4-biphenylyl)-1H-imidazol-2-yl)-1-pyrrolidinyl)carbonyl)-2-methylpropyl)carbamate]	1 to 99
COC(=O)N[C@@H](C(=O)N1CCC[C@H]1c1ncc(-c2ccc(-c3ccc(-c4cnc([C@@H]5CCCN5C(=O)N5CCOCC5)[nH]4)cn3)cc2)[nH]1)c1ccccc1 [Example 144, methyl ((1R)-2-((2S)-2-(5-(4-(5-(2-((2S)-1-(4-morpholinylcarbonyl)-2-pyrrolidinyl)-1H-imidazol-5-yl)-2-pyridinyl)phenyl)-1H-imidazol-2-yl)-1-pyrrolidinyl)-2-oxo-1-phenylethyl)carbamate]	0.001 to 0.999
CN(C)[C@@H](C(=O)N1CCC[C@H]1c1ncc(-c2ccc(-c3ccc(-c4cnc([C@@H]5CCCN5C(=O)C5(c6ccccc6)CC5)[nH]4)cc3)cc2)[nH]1)c1ccccc1F [Example 107-34, (1R)-1-(2-fluorophenyl)-N,N-dimethyl-2-oxo-2-((2S)-2-(5-(4′-(2-((2S)-1-((1-phenylcyclopropyl)carbonyl)-2-pyr-rolidinyl)-1H-imidazol-5-yl)-4-biphenylyl)-1H-imidazol-2-yl)-1-pyrrolidinyl)ethanamine]	0.001 to 0.999
COC(=O)N[C@@H](Cc1c[nH]nn1)C(=O)N1CCC[C@H]1c1ncc(-c2ccc(-c3ccc(-c4cnc([C@@H]5CCCN5C(=O)[C@@H](NC(=O)OC)[C@@H](C)OC)[nH]4)cc3)cc2)[nH]1 [cj-35, methyl ((1S)-2-((2S)-2-(5-(4′-(2-((2S)-1-((2S,3R)-3-methoxy-2-((methoxycarbonyl)amino)butanoyl)-2-pyrrolidinyl)-1H-imidazol-5-yl)-4-biphenylyl)-1H-imidazol-2-yl)-1-pyrrolidinyl)-2-oxo-1-(1H-1,2,3-triazol-4-ylmethyl)ethyl)carbamate]	1 to 99
COC(=O)N[C@@H](C(=O)N1CCC[C@H]1c1nc(-c2cc(-c3ccc(-c4cnc([C@@H]5CCCN5C(=O)[C@H](NC(=O)OC)c5ccccc5)[nH]4)cc3)ccc2OC)c[nH]1)c1ccccc1 [Example D34, dimethyl ((4-methoxy-3,4′-biphenyldiyl)bis(1H-imidazole-5,2-diyl(2S)-2,1-pyrrolidinediyl((1R)-2-oxo-1-phenyl-2,1-ethanediyl))) biscarbamate]	0.001 to 0.999
CCNC(=O)N[C@H](C(=O)N1CCC[C@H]1c1nc(-c2ccc(-c3ccc(-c4c[nH]c([C@@H]5CCCN5C(=O)[C@@H](NC(=O)NCC)C(C)C)n4)cc3)cc2)c[nH]1)C(C)C [Example F64, 1-ethyl-3-((1S)-1-(((2S)-2-(4-(4′-(2-((2S)-1-((2S)-2-((ethylcarbamoyl)amino)-3-methylbutanoyl)-2-pyrrolidinyl)-1H-imidazol-4-yl)-4-biphenylyl)-1H-imidazol-2-yl)-1-pyrrolidinyl)carbonyl)-2-methylpropyl)urea]	1 to 99
COC(=O)N[C@H](C(=O)N1CCC[C@H]1c1nc(-c2cnc(-c3ccc(-c4cnc([C@@H]5CCCN5C(=O)[C@@H](NC(=O)OC)C(C)C)[nH]4)c(F)c3)nc2)c[nH]1)C(C)C [Example D68, methyl ((1S)-1-(((2S)-2-(5-(2-fluoro-4-(5-(2-((2S)-1-((2S)-((methoxycarbonyl)amino)-3-methylbutanoyl)-2-pyrrolidinyl)-1H-imidazol-5-yl)-2-pyrimidinyl)phenyl)-1H-imidazol-2-yl)-1-pyrrolidinyl)carbonyl)-2-methylpropyl) carbamate]	0.001 to 0.999
